# Measured values from patent US7094760B2, “Peptides for treatment of inflammation and shock” (Salpep Biotechnology, Inc., priority 1996, dated 2006).
# Entries after “also recorded” stand apart in the source; their conditions may differ.
# What was measured:
# Format in all cases: in vivo, rat
# [1] = test system: LPS (Salmonella typhosa)-induced hypotension in sialadenectomized rats; test: endotoxin (LPS)-induced hypotension, sialadenectomized rats
# Experimental: (§1) The animal model of endotoxic shock used involves intravenous injection of endotoxin (3.5 mg/kg of lipopolysaccharide (LPS) from Salmonella typhosa) into pentobarbital-anaesthetized Sprague-Dawley rats, to produce a fall in mean arterial blood pressure within 3 to 5 minutes. The endotoxin was injected slowly over 1 min. via the jugular vein, and mean arterial blood pressure in mm mercury (MABP) was monitored continuously for 60 min, with the average blood pressure being calculated at 15, 30, 45 and 60 min. Studies were performed on unoperated rats and rats with their submandibular glands removed (sialadenectomized).
# (§2) The results shown in Table 1 are the averages of three different experiments using the protocol defined above. The data shown represent the average decrease in MABP (dec MABP) and the % Decrease in MABP over the 60 minutes following LPS administration. SGP-S (100μg/kg) and SGP-T (100 μg/kg) were administered 90 min. before LPS. […] Neither SGP-T nor SGP-S, when given prior to the LPS challenge, had appreciable effects on MABP.
# (§3) The dose-response relationship of the inhibitory effect of SGP-T and SGP-S on endotoxin-induced hypotension was also examined and the results are shown in FIG. 1.
# [2] = test system: endotoxin-induced fever in rats; test: endotoxin-induced fever, Example 12; settings: late phase (180–420 minutes); injected immediately before ip 150 μg/kg LPS
# Experimental: Rats were operated on to remove salivary glands (or controls were sham-operated) one week before challenge with endotoxin. At the time of operation, a temperature sensitive radio transmitter was inserted in the peritoneal cavity. One week after operation, baseline temperatures were recorded by telemetry and SGP-T or saline was injected immediately before intra-peritoneal injection of 150 μg/kg LPS. Temperature was followed for 12 hours. SGP-T suppressed a late phase (180–420 minutes) of endotoxin-induced fever.
# [3] = test system: LPS (Salmonella typhosa)-induced hypotension in unoperated rats; test: endotoxin (LPS)-induced hypotension, unoperated rats
# Experimental: as §1, §2
# Overall, SGP-T reduced by 60% the decrease and the percent decrease in MABP induced by endotoxin, relative to pre-LPS values. SGP-S, on the other hand, had no effect on the shock induced by endotoxin in unoperated rats.
# as §3
# [4] = test system: ovalbumin-sensitized Sprague-Dawley rats, submandibular glands removed; test: anaphylactic hypotension and heart function (VPSP, dP/dt), Example 10; settings: for integrated (average) decrease in VPSP over the 30 min: 10 min prior to antigen, saline control 46.2±6.5
# Experimental: Methods: Sprague-Dawley rats (200–300 g) were sensitized with 1 mg ovalbumin and 50 ng Pertussin toxin (Sigma) (24) one month prior to experimentation. The submandibular glands were removed bilaterally 7 days prior to the experiment by previously described procedures (23). Rats were anesthetized with sodium pentobarbital (65 mg/kg) and a tracheal tube (PE240 polyethylene tubing) was inserted before performing further surgeries. The jugular vein was-cannulated for injection of ovalbumin antigen, which was given as a bolus (100 μg/kg) over 10 sec. The right carotid artery was cannulated and the cannula tip was slowly advanced into the left ventricle, as detected when diastolic pressure fell to near 0 mmHg. The ventricular cannula was connected to a TXD-310 transducer and heart function parameters were recorded using a Digi-Med Heart Performance Analyser (Micro-Med, Louisville, Ky.). The effects of anaphylaxis on heart function were analysed by comparing the changes in ventricular peak systolic pressure (VPSP), and in the rate of ventricular contraction during systole (dP/dt) and relaxation during distole (−dP/dt). Antigen was injected at 10 min. The anaphylactic response was followed for 30 min.
# Very rapidly (within 1 min) after the intravenous injection of antigen into ovalbumin-sensitized rats, VPSP dropped and minimal ventricular pressures were measured at 5 min after initiation of the anaphylactic reaction.
# To determine if anaphylaxis directly affected heart function, the percent changes in VPSP were plotted against percent changes in dP/dt and −dP/dt. […] By analysis of variance, the slopes of the regression lines of dP/dt and −dP/dt were not different from unity.
# [5] = test system: ovalbumin-sensitized Sprague-Dawley rats; test: anaphylactic hypotension (VPSP), ovalbumin-sensitized rats, Example 8; settings: intravenous, 100 μg/kg, 10 min prior to antigen
# Experimental: Animals and Tissue Preparation: Male Sprague-Dawley rats were sensitized to egg albumin (ovalbumin; OA) with 50 ng of Pertussin bortella toxin as an adjuvant. Four to six weeks after sensitization, the rats were anesthetized with sodium pentobarbital. A tracheal tube was inserted and a cannula was inserted into the left ventricle for measuring ventricular peak systolic pressure (VPSP). This cannula was coupled to a blood pressure transducer. A cannula was also inserted into the jugular view for administration of peptide (100 μg/kg) and antigen (100 μg of OA). The peptides were injected intravenously 10 min prior to antigen injection and blood pressure was recorded for 30 min.
# In a second study, the peptide feG (D-phenylalanine, D-glutamate, glycine) was administered orally by a stomach tube 1 hour prior to intravenous injection of the sensitizing antigen.
# Data Analysis: The percent changes in VSPS induced by anaphyalctic reaction were calculated relative to baseline VPSP. Significance differences within groups were determined with one-way analysis of variance (ANOVA), and between groups with the Student t-test.
# [6] = peptide 100 μg/kg 90 min before LPS 3.5 mg/kg iv
substance,measurement,setting,value
"NH2-Thr-Asp-Ile-Phe-Glu-Gly-Gly-COOH (H-TDIFEGG-OH) [SGP-T, submandibular gland peptide T, TDIFEGG]",prevention of shock,[1]; doses higher than 10 μg/kg,less effective
same,LPS-provoked drop in blood pressure,"[1]; doses of 1, 3.5 and 10 μg/kg",significantly prevented
same,"decrease in blood pressure induced by LPS, dose-response",[1]; intravenously 1.5 hours before LPS,dose-dependently inhibited
same,% Dec = percent decrease in MABP relative to MABPbef,[1]; [6],−36.3 ± 3.3%
same,MABPaft = average MABP for 60 mins after LPS injection,[1]; [6],77.2 ± 3.9 mm Hg
same,dec MABP = decrease in MABP after LPS relative to MABPbef,[1]; [6],−46.1 ± 4.9 mm Hg
same,endotoxin-induced fever,[2],suppressed
same,effect on drop in MABP / shock induced by endotoxin,[3],reduced the drop in MABP
same,optimal dose for reducing LPS-induced hypotension,[3],higher than in operated animals
same,% Dec = percent decrease in MABP relative to MABPbef,[3]; [6],−11.6%
same,MABPaft = average MABP for 60 mins after LPS injection,[3]; [6],99.6 ± 3.8 mm Hg
same,dec MABP = decrease in MABP after LPS relative to MABPbef,[3]; [6],−13.6 ± 2.9 mm Hg
same,reduction of the decrease and the percent decrease in MABP induced by endotoxin,[3]; relative to pre-LPS values,60%
same,integrated (average) decrease in VPSP over the 30 min,[4]; 10 μg/kg,16.7±8.3 mm Hg
same,integrated (average) decrease in VPSP over the 30 min,[4]; 100 μg/kg,15.9±8.0 mm Hg
same,VPSP by the end of the experiment,"[4]; 10 and 100 μg/kg, 30 min after antigen",attained pre-antigen values
same,initial anaphylactic reaction (initial blood pressure drop),[4]; FIG. 12,does not prevent
same,sustained anaphylactic reaction,[4]; FIG. 12,does prevent
same,drop in blood pressure elicited by the anaphylactic reaction,[4]; doses of 35 and 100 μg/kg,significantly reduced
same,anaphylactic hypotension / decrease in VPSP provoked by antigen,[4]; injected 10 min prior to antigen (100 μg/kg),protected the rats against anaphylactic hypotension; also recorded: reduced significantly
same,protection against antigen elicited hypotension,[4]; lower (10 μg/kg) and higher (350 μg/kg) doses,Neither lower (10 μg/kg) nor higher doses (350 μg/kg) of SGP-T protected
same,anaphylactic hypotension (VPSP),[5],significantly inhibited
